System: HIV
Experiment: Cellular assay: anti-viral activity in HIV-infected MT4 cells (MTT viability)
Type: cell-based
Conditions: Human immunodeficiency virus 1, 120 h, five days incubation, MTT readout, negative logarithm of EC50 (protection of 50% of cells from cytopathogenic effect of the virus)
Method: The compounds of the present invention were examined for anti-viral activity in a cellular assay, which was performed according to the following procedure.
HIV- or mock-infected MT4 cells were incubated for five days in the presence of various concentrations of the inhibitor. At the end of the incubation period, the replicating virus in the control cultures has killed all HIV-infected cells in the absence of any inhibitor. Cell viability was determined by measuring the concentration of MTT, a yellow, water soluble tetrazolium dye that is converted to a purple, water insoluble formazan in the mitochondria of living cells only. Upon solubilization of the resulting formazan crystals with isopropanol, the absorbance of the solution was monitored at 540 nm. The values correlate directly to the number of living cells remaining in the culture at the completion of the five day incubation. The inhibitory activity of the compound was monitored on the virus-infected cells and was expressed as EC50 and EC90. These values represent the amount of the compound required to protect 50% and 90%, respectively, of the cells from the cytopathogenic effect of the virus. The toxicity of the compound was measured on the mock-infected cells and was expressed as CC50, which represents the concentration of compound required to inhibit the growth of the cells by 50%. The selectivity index (SI) (ratio CC50/EC50) is an indication of the selectivity of the anti-HIV activity of the inhibitor. Wherever results are reported as e.g. pEC50 or pCC50 values, the result is expressed as the negative logarithm of the result expressed as EC50 or CC50 respectively.

Structure (SMILES) | EC50 [nM]
Cn1c2ccc(N3CCOCC3)cc2c2c1cc(C#N)c(=O)n2-c1ccc([N+](=O)[O-])cc1 [Compound 3, 8-morpholin-5-methyl-1-(4-nitro-phenyl)-2-oxo-2,5-dihydro-1H-pyrido[3,2-b]indole-3-carbonitrile] | 2510
CN1CCN(c2ccc3c(c2)c2c(cc(C#N)c(=O)n2-c2ccc([N+](=O)[O-])cc2)n3C)CC1 [Compound 4] | 316
CN(C)CCCN(C)c1ccc2c(c1)c1c(cc(C#N)c(=O)n1-c1ccc([N+](=O)[O-])cc1)n2C [Compound 7, 8-[(3-Dimethylamino-propyl)-methylamino]-5-methyl-1-(4-nitro-phenyl)-2-oxo-2,5-dihydro-1H-pyrido[3,2-b]indole-3-carbonitrile] | 158
Cn1c2ccc(N)cc2c2c1cc(C#N)c(=O)n2-c1ccc([N+](=O)[O-])cc1 [Compound 8] | 20000
COC(=O)c1ccc2c(c1)c1c(cc(C#N)c(=O)n1-c1ccc(N)cc1)n2C [Compound 9] | 15800
COC(=O)c1ccc2c(c1)c1c(cc(C#N)c(=O)n1-c1ccc([N+](=O)[O-])cc1)n2C [Compound 12] | 2000
Cn1c2cc(F)c(F)cc2c2c1cc(C#N)c(=O)n2-c1ccc([N+](=O)[O-])cc1 [Compound 15] | 398
COc1cc2c(cc1F)c1c(cc(C#N)c(=O)n1-c1ccc([N+](=O)[O-])cc1)n2C [Compound 16] | 3980
CN(C)CCCOc1ccc2c(c1)c1c(cc(C#N)c(=O)n1-c1ccc([N+](=O)[O-])cc1)n2C [Compound 18, 8-[(3-Dimethylamino-propyl)-oxy]-5-methyl-1-(4-nitro-phenyl)-2-oxo-2,5-dihydro-1H-pyrido[3,2-b]indole-3-carbonitrile] | 251

Second part, the compound after the results:

EC50 [nM] | Structure (SMILES)
15800 | Cc1ccc2c(c1)c1c(cc(C#N)c(=O)n1-c1ccc([N+](=O)[O-])cc1)n2C [Compound 26]
79.4 | COc1ccc2c(c1)c1c(cc(C#N)c(=O)n1-c1ccc([N+](=O)[O-])cc1)n2C [Compound 27, 8-methoxy-5-methyl-1-(4-nitro-phenyl)-2-oxo-2,5-dihydro-1H-pyrido[3,2-b]indole-3-carbonitrile]
2510 | N#Cc1cc2[nH]c3cc(F)c(F)cc3c2n(-c2ccc([N+](=O)[O-])cc2)c1=O [Compound 28]
200 | Cn1c2ccc(O)cc2c2c1cc(C#N)c(=O)n2-c1ccc([N+](=O)[O-])cc1 [Compound 29, 8-hydroxy-5-methyl-1-(4-nitro-phenyl)-2-oxo-2,5-dihydro-1H-pyrido[3,2-b]indole-3-carbonitrile]
1260 | Cn1c2cc(O)ccc2c2c1cc(C#N)c(=O)n2-c1ccc([N+](=O)[O-])cc1 [Compound 32]
